# How the values were obtained:
# Conditions in all cases: binder
# MRCKa = MRCKa (Homo sapiens, UniProt Q5VT25)
# PCTAIRE1 = PCTAIRE1 (Homo sapiens, UniProt Q00536)
# FECH = target: T1, FECH (Homo sapiens, UniProt P22830)
# T1 sequence (P22830 1-423): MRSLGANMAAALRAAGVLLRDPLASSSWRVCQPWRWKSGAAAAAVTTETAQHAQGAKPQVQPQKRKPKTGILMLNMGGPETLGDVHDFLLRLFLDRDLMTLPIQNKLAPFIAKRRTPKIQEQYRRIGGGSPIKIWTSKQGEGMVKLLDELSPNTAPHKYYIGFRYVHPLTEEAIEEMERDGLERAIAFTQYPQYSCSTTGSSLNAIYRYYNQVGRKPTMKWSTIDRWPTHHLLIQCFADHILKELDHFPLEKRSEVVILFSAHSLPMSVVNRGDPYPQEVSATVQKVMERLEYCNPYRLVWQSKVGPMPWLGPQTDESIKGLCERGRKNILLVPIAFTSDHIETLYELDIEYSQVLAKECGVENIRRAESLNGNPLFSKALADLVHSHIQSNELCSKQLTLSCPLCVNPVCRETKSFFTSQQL
# MSSK1 = MSSK1 (Homo sapiens, UniProt Q9UPE1)
# CDKL1 = CDKL1 (Homo sapiens, UniProt Q00532)
# ABL1 = ABL1 (Homo sapiens, UniProt P00519)
# GAK = target: T2, GAK (Homo sapiens, UniProt O14976)
# T2 sequence (O14976 1-1311): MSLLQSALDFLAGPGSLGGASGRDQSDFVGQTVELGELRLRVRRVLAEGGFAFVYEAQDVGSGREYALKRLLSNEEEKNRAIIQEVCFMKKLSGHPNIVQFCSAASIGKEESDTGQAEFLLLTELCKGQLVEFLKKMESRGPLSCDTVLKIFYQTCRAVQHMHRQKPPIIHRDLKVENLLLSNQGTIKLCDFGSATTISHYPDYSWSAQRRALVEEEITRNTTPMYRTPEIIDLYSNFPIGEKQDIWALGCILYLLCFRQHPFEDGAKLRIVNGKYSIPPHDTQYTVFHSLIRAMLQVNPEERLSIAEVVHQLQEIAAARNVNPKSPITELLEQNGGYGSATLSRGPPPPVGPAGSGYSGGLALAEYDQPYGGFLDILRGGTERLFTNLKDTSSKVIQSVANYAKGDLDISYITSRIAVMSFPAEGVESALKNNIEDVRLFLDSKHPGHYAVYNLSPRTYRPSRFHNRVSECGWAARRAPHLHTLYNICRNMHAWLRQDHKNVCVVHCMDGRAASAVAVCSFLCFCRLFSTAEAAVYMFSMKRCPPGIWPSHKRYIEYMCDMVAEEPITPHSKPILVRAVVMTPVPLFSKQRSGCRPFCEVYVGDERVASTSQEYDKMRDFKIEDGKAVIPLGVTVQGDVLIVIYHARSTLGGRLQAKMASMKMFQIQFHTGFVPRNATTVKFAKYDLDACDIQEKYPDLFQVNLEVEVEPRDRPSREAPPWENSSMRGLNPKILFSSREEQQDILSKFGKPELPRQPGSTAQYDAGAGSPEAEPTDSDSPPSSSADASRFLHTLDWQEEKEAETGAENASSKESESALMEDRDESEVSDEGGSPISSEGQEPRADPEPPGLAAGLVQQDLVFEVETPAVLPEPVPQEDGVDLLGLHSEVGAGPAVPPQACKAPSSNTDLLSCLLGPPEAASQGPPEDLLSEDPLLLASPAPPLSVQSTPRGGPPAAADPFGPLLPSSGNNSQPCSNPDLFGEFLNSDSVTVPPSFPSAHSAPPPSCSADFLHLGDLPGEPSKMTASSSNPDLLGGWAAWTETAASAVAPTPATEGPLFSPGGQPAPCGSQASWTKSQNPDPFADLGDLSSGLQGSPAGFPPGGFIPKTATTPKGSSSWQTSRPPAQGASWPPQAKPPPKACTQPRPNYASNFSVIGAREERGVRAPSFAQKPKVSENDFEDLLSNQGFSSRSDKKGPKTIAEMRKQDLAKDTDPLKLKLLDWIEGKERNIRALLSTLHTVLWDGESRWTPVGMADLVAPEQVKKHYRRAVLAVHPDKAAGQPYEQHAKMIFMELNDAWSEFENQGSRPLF
# GPRK5 = GPRK5 (Homo sapiens, UniProt P34947)
# MYT1 = target: T3, MYT1 (Homo sapiens, UniProt Q99640)
# T3 sequence (Q99640 1-499): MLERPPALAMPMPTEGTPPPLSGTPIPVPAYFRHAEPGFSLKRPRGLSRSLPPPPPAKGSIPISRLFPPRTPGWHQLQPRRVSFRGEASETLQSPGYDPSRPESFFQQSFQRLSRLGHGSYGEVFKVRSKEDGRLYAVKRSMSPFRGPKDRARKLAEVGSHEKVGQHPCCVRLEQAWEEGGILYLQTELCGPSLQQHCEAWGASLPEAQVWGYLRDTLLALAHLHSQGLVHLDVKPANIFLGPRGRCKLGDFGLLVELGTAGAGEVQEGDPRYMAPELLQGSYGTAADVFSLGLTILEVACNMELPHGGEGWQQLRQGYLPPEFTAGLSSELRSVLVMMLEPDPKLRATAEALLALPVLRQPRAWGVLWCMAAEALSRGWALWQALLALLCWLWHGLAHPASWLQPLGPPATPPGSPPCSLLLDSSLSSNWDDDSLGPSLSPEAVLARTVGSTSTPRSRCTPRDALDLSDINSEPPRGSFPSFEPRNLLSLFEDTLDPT
# PCTAIRE1, sequence (Q00536 whole entry): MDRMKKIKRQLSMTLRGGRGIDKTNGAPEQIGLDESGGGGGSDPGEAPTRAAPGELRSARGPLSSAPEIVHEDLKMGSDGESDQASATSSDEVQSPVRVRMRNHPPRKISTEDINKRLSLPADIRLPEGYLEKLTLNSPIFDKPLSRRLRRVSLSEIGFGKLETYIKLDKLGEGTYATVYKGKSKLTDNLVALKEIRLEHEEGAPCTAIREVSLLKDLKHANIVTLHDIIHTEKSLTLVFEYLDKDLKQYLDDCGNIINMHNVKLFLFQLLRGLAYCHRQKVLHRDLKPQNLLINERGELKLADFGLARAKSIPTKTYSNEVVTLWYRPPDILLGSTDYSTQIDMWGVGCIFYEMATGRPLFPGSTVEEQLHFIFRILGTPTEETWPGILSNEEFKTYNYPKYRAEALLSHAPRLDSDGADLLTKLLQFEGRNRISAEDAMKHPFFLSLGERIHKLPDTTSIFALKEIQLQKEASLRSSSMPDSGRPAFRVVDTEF
# GPRK5, sequence (P34947 whole entry): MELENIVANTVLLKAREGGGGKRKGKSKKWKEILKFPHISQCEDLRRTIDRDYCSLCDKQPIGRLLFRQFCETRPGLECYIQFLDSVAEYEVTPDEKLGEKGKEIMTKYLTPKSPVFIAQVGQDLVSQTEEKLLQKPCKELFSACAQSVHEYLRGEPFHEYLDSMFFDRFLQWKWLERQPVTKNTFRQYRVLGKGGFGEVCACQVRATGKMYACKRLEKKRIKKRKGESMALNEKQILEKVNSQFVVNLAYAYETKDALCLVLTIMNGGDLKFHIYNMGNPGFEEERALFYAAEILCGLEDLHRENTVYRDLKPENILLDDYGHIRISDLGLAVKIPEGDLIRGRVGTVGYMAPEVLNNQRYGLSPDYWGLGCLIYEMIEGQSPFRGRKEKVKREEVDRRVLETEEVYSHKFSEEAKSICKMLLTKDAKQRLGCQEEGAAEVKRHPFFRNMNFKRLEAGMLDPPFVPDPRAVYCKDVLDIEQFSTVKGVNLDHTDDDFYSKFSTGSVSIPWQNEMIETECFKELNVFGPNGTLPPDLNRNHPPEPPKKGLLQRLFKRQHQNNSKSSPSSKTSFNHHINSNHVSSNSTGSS
# MSSK1, sequence (Q9UPE1 whole entry): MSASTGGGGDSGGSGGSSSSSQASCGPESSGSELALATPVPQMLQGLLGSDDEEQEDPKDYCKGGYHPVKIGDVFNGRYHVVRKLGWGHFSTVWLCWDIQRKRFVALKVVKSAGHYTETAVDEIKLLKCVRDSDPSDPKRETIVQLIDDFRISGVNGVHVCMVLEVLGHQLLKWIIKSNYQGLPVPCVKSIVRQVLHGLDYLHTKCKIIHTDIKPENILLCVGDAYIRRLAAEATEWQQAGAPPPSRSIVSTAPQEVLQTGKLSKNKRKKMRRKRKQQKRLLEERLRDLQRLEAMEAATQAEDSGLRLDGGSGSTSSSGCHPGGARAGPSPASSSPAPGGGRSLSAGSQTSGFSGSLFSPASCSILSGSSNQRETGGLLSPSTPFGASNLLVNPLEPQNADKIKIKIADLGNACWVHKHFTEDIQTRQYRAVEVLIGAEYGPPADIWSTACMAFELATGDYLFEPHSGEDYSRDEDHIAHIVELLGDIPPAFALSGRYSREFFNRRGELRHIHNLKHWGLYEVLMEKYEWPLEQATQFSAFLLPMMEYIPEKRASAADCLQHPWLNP
# ABL1, sequence (P00519 whole entry): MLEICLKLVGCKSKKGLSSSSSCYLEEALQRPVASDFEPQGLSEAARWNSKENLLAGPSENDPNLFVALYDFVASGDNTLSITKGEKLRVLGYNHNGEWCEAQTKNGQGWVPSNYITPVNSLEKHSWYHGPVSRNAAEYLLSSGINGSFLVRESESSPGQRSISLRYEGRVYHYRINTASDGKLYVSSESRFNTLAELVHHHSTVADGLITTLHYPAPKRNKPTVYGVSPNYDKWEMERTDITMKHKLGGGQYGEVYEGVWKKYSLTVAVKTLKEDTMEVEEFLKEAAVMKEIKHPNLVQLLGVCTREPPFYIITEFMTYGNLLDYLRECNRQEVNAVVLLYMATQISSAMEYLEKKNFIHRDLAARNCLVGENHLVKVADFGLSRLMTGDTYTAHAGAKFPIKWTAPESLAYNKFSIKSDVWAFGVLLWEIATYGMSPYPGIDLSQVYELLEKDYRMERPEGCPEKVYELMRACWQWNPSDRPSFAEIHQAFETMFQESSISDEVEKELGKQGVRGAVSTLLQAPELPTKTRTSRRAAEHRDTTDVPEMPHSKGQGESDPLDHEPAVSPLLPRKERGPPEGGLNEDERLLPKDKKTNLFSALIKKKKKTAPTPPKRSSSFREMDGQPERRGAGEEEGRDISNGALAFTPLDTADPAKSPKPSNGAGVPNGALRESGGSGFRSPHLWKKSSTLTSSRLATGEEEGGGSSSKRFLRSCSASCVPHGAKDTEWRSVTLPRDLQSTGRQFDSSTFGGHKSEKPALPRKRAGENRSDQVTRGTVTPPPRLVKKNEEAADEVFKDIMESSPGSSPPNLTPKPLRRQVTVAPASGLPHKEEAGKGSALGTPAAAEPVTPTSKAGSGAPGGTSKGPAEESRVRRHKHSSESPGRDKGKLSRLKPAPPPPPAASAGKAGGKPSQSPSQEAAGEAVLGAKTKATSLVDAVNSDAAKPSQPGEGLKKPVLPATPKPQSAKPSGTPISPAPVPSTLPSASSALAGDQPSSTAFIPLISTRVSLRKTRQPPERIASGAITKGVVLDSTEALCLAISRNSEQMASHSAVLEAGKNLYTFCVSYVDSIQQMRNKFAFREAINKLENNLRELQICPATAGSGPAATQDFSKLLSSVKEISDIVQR
# CDKL1, sequence (Q00532 whole entry): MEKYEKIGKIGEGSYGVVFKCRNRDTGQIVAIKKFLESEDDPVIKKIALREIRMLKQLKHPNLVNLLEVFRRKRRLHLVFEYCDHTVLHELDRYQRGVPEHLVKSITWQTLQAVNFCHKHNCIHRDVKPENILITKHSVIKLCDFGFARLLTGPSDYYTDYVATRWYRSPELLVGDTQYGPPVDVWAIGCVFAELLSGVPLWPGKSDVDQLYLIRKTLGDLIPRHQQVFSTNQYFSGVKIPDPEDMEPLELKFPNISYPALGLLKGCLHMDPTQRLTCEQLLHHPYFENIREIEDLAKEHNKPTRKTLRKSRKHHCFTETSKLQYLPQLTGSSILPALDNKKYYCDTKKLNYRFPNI
# MRCKa, sequence (Q5VT25 whole entry): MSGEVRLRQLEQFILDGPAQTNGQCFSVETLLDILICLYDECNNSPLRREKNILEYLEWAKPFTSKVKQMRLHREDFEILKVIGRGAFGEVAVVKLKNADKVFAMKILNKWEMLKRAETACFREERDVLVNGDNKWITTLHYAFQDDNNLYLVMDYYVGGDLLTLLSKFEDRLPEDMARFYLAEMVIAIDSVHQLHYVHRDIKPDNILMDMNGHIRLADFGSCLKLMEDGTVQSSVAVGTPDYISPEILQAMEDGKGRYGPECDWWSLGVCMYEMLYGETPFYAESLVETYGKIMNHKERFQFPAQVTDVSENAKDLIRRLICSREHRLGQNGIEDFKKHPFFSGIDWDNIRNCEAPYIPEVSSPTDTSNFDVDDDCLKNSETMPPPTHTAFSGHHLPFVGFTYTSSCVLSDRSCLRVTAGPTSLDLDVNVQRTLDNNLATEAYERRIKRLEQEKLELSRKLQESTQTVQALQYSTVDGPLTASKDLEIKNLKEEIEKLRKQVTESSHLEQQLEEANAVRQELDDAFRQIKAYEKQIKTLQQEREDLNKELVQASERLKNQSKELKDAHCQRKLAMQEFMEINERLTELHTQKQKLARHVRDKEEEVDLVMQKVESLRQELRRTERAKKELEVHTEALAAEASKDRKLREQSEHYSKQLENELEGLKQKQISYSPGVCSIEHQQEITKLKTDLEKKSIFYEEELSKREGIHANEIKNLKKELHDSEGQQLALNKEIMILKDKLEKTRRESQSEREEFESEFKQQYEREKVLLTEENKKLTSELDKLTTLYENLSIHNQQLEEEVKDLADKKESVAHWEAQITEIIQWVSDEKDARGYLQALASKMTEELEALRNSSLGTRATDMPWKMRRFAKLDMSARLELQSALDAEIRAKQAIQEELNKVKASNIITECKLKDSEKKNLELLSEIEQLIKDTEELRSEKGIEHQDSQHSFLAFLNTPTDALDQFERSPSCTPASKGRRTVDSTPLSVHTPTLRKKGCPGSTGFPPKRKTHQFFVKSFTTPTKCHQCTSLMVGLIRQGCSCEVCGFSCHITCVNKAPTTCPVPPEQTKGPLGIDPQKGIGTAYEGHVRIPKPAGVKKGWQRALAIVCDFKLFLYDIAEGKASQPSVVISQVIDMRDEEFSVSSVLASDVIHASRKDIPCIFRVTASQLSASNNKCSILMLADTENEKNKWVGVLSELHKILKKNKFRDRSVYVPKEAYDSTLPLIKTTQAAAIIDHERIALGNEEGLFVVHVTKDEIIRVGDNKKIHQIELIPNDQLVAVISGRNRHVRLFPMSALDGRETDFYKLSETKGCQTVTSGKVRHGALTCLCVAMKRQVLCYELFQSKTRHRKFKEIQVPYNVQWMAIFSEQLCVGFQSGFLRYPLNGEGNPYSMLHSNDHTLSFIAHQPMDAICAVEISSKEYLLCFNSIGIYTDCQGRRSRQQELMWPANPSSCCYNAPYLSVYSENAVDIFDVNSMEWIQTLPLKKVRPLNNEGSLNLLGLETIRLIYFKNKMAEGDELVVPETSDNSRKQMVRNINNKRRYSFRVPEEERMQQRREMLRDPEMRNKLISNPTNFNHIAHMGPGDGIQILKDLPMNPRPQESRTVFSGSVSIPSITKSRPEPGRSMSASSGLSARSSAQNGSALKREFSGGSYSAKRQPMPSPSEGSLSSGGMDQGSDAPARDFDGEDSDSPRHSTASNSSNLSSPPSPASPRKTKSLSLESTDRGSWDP
smiles,measurement,setting,value
"COc1cc(N2CCN(C)CC2)ccc1Nc1ncc2cc(-c3ccc(-c4cccc(C)n4)cc3Cl)c(=O)n(CCCCN)c2n1 [compound 36, 8-(4-Aminobutyl)-6-(2-chloro-4-(6-methylpyridin-2-yl)phenyl)-2-((2-methoxy-4-(4-methylpiperazin-1-yl)phenyl)amino)pyrido[2,3-d]pyrimidin-7(8H)-one]",dTm 36,MRCKa,-0.9 °C
same,dTm 36,PCTAIRE1,0.2 °C
same,dTm 36,FECH,3.0 °C
same,dTm 36,MSSK1,0.0 °C
same,dTm 36,CDKL1,0.8 °C
same,dTm 36,ABL1,5.0 °C
same,dTm 36,GAK,11.7 °C
same,dTm 36,GPRK5,-1.3 °C
same,dTm 36,MYT1,-2.8 °C
"COc1cc(N2CCOCC2)ccc1Nc1ncc2cc(-c3ccc(-c4cccc(C)n4)cc3Cl)c(=O)n(CCCCN)c2n1 [compound 35, 8-(4-Aminobutyl)-6-(2-chloro-4-(6-methylpyridin-2-yl)phenyl)-2-((2-methoxy-4-morpholino-phenyl)amino)pyrido[2,3-d]pyrimidin-7(8H)-one]",dTm 35,MRCKa,-2.1 °C
same,dTm 35,PCTAIRE1,0.1 °C
same,dTm 35,FECH,7.0 °C
same,dTm 35,MSSK1,-0.2 °C
same,dTm 35,CDKL1,0.3 °C
same,dTm 35,ABL1,5.8 °C
same,dTm 35,GAK,13.5 °C
same,dTm 35,GPRK5,-2.1 °C
same,dTm 35,MYT1,-3.5 °C
"Cc1cccc(-c2ccc(-c3cc4cnc(Nc5ccc(F)c(CO)c5)nc4n(CCCCN)c3=O)c(Cl)c2)n1 [compound 33, 8-(4-Aminobutyl)-6-(2-chloro-4-(6-methylpyridin-2-yl)phenyl)-2-((4-fluoro-3-(hydroxymethyl)phenyl)amino)pyrido[2,3-d]pyrimidin-7(8H)-one]",dTm 33,MRCKa,1.9 °C
same,dTm 33,PCTAIRE1,5.2 °C
same,dTm 33,FECH,-2.9 °C
same,dTm 33,MSSK1,-0.4 °C
same,dTm 33,CDKL1,2.0 °C
same,dTm 33,ABL1,10.6 °C
same,dTm 33,GAK,12.5 °C
same,dTm 33,GPRK5,-0.8 °C
same,dTm 33,MYT1,-1.8 °C
"COc1ccc(O)c(Nc2ncc3cc(-c4ccc(-c5cccc(C)n5)cc4Cl)c(=O)n(CCCCN)c3n2)c1 [compound 34, 8-(4-Aminobutyl)-6-(2-chloro-4-(6-methylpyridin-2-yl)phenyl)-2-((2-hydroxy-5-methoxy-phenyl)amino)pyrido[2,3-d]pyrimidin-7(8H)-one]",dTm 34,MRCKa,0.8 °C
same,dTm 34,PCTAIRE1,0.6 °C
same,dTm 34,FECH,3.2 °C
same,dTm 34,MSSK1,0.4 °C
same,dTm 34,CDKL1,1.5 °C
same,dTm 34,ABL1,5.2 °C
same,dTm 34,GAK,9.3 °C
same,dTm 34,GPRK5,-0.7 °C
same,dTm 34,MYT1,-2.7 °C

# Reference: publication doi:10.1101/2023.11.24.568596v1 (biorxiv, 2023)
